Experimental data published in patent publication US20250250230A1, “HETEROCYCLIC COMPOUND” (TAKEDA PHARMACEUTICAL COMPANY LIMITED, priority 2022, published 2025).

Target: T1, human orexin type 2 receptor (Homo sapiens, UniProt O43614)
T1 construct: expressed in transfected cells
T1 sequence (O43614 1-444): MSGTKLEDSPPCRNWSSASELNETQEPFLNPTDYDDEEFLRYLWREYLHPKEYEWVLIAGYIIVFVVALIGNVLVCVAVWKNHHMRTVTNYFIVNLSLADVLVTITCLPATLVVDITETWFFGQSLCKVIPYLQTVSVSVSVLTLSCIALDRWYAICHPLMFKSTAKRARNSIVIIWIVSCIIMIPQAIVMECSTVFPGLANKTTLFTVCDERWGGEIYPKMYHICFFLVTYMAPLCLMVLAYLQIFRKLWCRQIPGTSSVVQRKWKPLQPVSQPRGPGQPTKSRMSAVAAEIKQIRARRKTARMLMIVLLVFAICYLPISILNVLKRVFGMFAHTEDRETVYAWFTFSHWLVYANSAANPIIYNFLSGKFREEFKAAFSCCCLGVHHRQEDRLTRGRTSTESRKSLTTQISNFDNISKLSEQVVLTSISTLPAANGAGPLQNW
Assay: Measurement of orexin type 2 receptor agonist activity (calcium fluorescence, Fluo-4 AM, FDSS)
Format: cell-based
Conditions: test compound 3 μM; CHO cells expressing human OX2 receptor; DMSO = 0%, orexin A (human) = 100%
Method in brief: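 Agonist response scaled between vehicle (0%) and human orexin A at 10 nM final (100%), from 2-min kinetic Fluo-4 fluorescence reads. Stable hOX2R CHO-K1 clone, dye-loaded in HBSS/20 mM HEPES/0.1% BSA with 1.25 mM probenecid before compound addition.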

Row | Compound | OX2R agonist activity (3 μM, %) [%]
1 | CS(=O)(=O)N[C@H]1CCN(C(=O)C2CC2(F)c2ccccc2-c2c(F)cccc2F)C1 (single isomer, unassigned) [Example 304, N-{(3S)-1-[(1S,2S)-2-(2′,6′-difluoro [1,1′-biphenyl]-2-yl)-2-fluorocyclopropane-1-carbonyl]pyrrolidin-3-yl}methanesulfonamide, or N-{(3S)-1-[(1R,2R)-2-(2′,6′-difluoro[1,1′-biphenyl]-2-yl)-2-fluorocyclopropane-1-carbonyl]pyrrolidin-3-yl}methanesulfonamide] | 93
2 | CO[C@@H]1CN(C(=O)[C@@H]2C[C@H]2c2ccccc2-c2c(F)cccc2F)C[C@H]1NS(C)(=O)=O [Example 323, N-{(3R,4R)-1-[(1R,2R)-2-(2′,6′-difluoro[1,1′-biphenyl]-2-yl)cyclopropane-1-carbonyl]-4-methoxypyrrolidin-3-yl}methanesulfonamide] | 96
3 | CS(=O)(=O)NC1CCCN(C(=O)C2CC2c2ccccc2-c2cc(F)ccc2F)CC1 (racemic) [Example 51, a mixture of rac-N-{(4R)-1-[(1R,2R)-2-(2′,5′-difluoro[1,1′-biphenyl]-2-yl)cyclopropane-1-carbonyl]azepan-4-yl}methanesulfonamide and rac-N-{(4S)-1-[(1R,2R)-2-(2′,5′-difluoro[1,1′-biphenyl]-2-yl)cyclopropane-1-carbonyl]azepan-4-yl}methanesulfonamide] | 75
4 | CC1(C(=O)N2CCCC[C@H](NS(C)(=O)=O)C2)CC1c1ccccc1-c1c(F)cccc1F (stereo partly drawn) [Example 274, N-{(3S)-1-[(1R,2S)-2-(2′,6′-difluoro[1,1′-biphenyl]-2-yl)-1-methylcyclopropane-1-carbonyl]azepan-3-yl}methanesulfonamide, or N-{(3S)-1-[(1S,2R)-2-(2′,6′-difluoro[1,1′-biphenyl]-2-yl)-1-methylcyclopropane-1-carbonyl]azepan-3-yl}methanesulfonamide] | 86
5 | Cc1cc(-c2c(F)cccc2F)c(C2CC2C(=O)N2CC[C@H](NS(C)(=O)=O)C2)cn1 (mixture of isomers) [Example 268, a mixture of rac-N-[(3R)-1-{(1R,2R)-2-[4-(2,6-difluorophenyl)-6-methylpyridin-3-yl]cyclopropane-1-carbonyl}pyrrolidin-3-yl]methanesulfonamide and rac-N-[(3S)-1-{(1R,2R)-2-[4-(2,6-difluorophenyl)-6-methylpyridin-3-yl]cyclopropane-1-carbonyl}pyrrolidin-3-yl]methanesulfonamide] | 80
6 | CNS(=O)(=O)NC[C@@H]1CN(C(=O)[C@@H]2C[C@H]2c2ccccc2-c2c(F)cccc2F)CCO1 [Example 337, N-({(2S)-4-[(1R,2R)-2-(2′,6′-difluoro[1,1′-biphenyl]-2-yl)cyclopropane-1-carbonyl]morpholin-2-yl}methyl)-N′-methylsulfuric diamide] | 100
7 | CCS(=O)(=O)NC[C@@H]1[C@H](C)CN1C(=O)[C@@H]1C[C@@]1(F)c1ccccc1-c1c(F)cccc1F [Example 360, N-({(2S,3R)-1-[(1S,2S)-2-(2′,6′-difluoro[1,1′-biphenyl]-2-yl)-2-fluorocyclopropane-1-carbonyl]-3-methylazetidin-2-yl}methyl)ethanesulfonamide] | 103
8 | CS(=O)(=O)N[C@@H]1CN(C(=O)C2CC2c2c(-c3c(F)cccc3F)csc2F)CCC1(F)F (stereo partly drawn) [Example 378, N-[(3R)-1-{(1R,2R)-2-[4-(2,6-difluorophenyl)-2-fluorothiophen-3-yl]cyclopropane-1-carbonyl}-4,4-difluoropiperidin-3-yl]methanesulfonamide, or N-[(3R)-1-{(1S,2S)-2-[4-(2,6-difluorophenyl)-2-fluorothiophen-3-yl]cyclopropane-1-carbonyl}-4,4-difluoropiperidin-3-yl]methanesulfonamide] | 103
